Measured values from ChEMBL document CHEMBL2331510, “Antimycobacterial activity evaluation, time-kill kinetic and 3D-QSAR study of C-(3-aminomethyl-cyclohexyl)-methylamine derivatives” (Bioorg Med Chem Lett, 2013).
Values after ≈ are worked out from the molar mass of the structure shown. Active and inactive are the calls of the source. The rule behind the calls is not given here.

Test system: Mycobacterium tuberculosis
Test: Bactericidal activity against Mycobacterium tuberculosis H37Rv assessed as reduction in CFU over 4 days by serial dilution-based time kill assay relative to control
Assay type: functional
Conditions: not given

Structure (SMILES)	Activity
CC(C)(C)c1ccc(CNCC2CCCC(CNCc3ccc(C(C)(C)C)cc3)C2)cc1.Cl.Cl (centres undefined)	Dose-dependent effect

Same assay, conditions: 96 h

Structure (SMILES)	MBC [µM]
CC(C)(C)c1ccc(CNCC2CCCC(CNCc3ccc(C(C)(C)C)cc3)C2)cc1.Cl.Cl (centres undefined)	4.5

Test system: Mycobacterium tuberculosis
Test: Bactericidal activity against Mycobacterium tuberculosis H37Rv assessed as reduction in CFU at 10 times MIC by serial dilution-based time kill assay relative to control
Assay type: functional, organism-based
Conditions: TDE = time-dependent effect

Structure (SMILES)	Activity
CC(C)(C)c1ccc(CNCC2CCCC(CNCc3ccc(C(C)(C)C)cc3)C2)cc1.Cl.Cl (centres undefined)	tde

Test system: not listed separately
Test: Cytotoxicity against human RBC up to 500 ug/ml
Assay type: cell-based
Conditions: erythrocyte

Structure (SMILES)	Activity
CC(C)(C)c1ccc(CNCC2CCCC(CNCc3ccc(C(C)(C)C)cc3)C2)cc1.Cl.Cl (centres undefined)	Non-toxic
CCCCc1ccc(CNCC2CCCC(CNCc3ccc(CCCC)cc3)C2)cc1.Cl.Cl (centres undefined)	Non-toxic

Test system: Mycobacterium tuberculosis
Test: Bactericidal activity against Mycobacterium tuberculosis H37Rv assessed as log reduction in CFU at 10 times MIC over 2 days by serial dilution-based time kill assay relative to control
Assay type: functional
Conditions: not given

Structure (SMILES)	FC
CC(C)(C)c1ccc(CNCC2CCCC(CNCc3ccc(C(C)(C)C)cc3)C2)cc1.Cl.Cl (centres undefined)	5
CCCCc1ccc(CNCC2CCCC(CNCc3ccc(CCCC)cc3)C2)cc1.Cl.Cl (centres undefined)	5

Test system: Mycobacterium tuberculosis
Test: Bactericidal activity against Mycobacterium tuberculosis H37Rv assessed as reduction in CFU at 10 times MIC after 4 days by serial dilution-based time kill assay relative to control
Assay type: functional, organism-based
Conditions: not given

Structure (SMILES)	Activity
CC(C)(C)c1ccc(CNCC2CCCC(CNCc3ccc(C(C)(C)C)cc3)C2)cc1.Cl.Cl (centres undefined)	Active
CCCCc1ccc(CNCC2CCCC(CNCc3ccc(CCCC)cc3)C2)cc1.Cl.Cl (centres undefined)	Active

Test system: Mycobacterium tuberculosis
Test: Antitubercular activity against Mycobacterium tuberculosis H37Rv at 20 uM after 5 days by fluorescence assay
Assay type: functional, organism-based
Conditions: not given

Structure (SMILES)	inhibition
O=[N+]([O-])c1cccc(CNCC2CCCC(CNCc3cccc([N+](=O)[O-])c3)C2)c1 (centres undefined)	inactive
FC(F)(F)c1ccccc1CNCC1CCCC(CNCc2ccccc2C(F)(F)F)C1 (centres undefined)	inactive
Cc1ccccc1CNCC1CCCC(CNCc2ccccc2C)C1 (centres undefined)	inactive
Fc1cccc(F)c1CNCC1CCCC(CNCc2c(F)cccc2F)C1 (centres undefined)	inactive
Fc1ccccc1CNCC1CCCC(CNCc2ccccc2F)C1 (centres undefined)	inactive
CN1CCN(c2ccc(CNCC3CCCC(CNCc4ccc(N5CCN(C)CC5)cc4)C3)cc2)CC1 (centres undefined)	inactive
c1ccc(CNCC2CCCC(CNCc3ccccc3)C2)cc1 (centres undefined)	inactive
Fc1cc(F)cc(CNCC2CCCC(CNCc3cc(F)cc(F)c3)C2)c1 (centres undefined)	inactive
Clc1ccccc1CNCC1CCCC(CNCc2ccccc2Cl)C1 (centres undefined)	inactive
Fc1ccc(CNCC2CCCC(CNCc3ccc(F)cc3)C2)cc1 (centres undefined)	inactive
Clc1cccc(Cl)c1CNCC1CCCC(CNCc2c(Cl)cccc2Cl)C1 (centres undefined)	inactive
COc1ccc(CNCC2CCCC(CNCc3ccc(OC)cc3)C2)cc1 (centres undefined)	inactive
Fc1cccc(CNCC2CCCC(CNCc3cccc(F)c3)C2)c1 (centres undefined)	inactive
O=[N+]([O-])c1ccccc1CNCC1CCCC(CNCc2ccccc2[N+](=O)[O-])C1 (centres undefined)	inactive
O=[N+]([O-])c1ccc(CNCC2CCCC(CNCc3ccc([N+](=O)[O-])cc3)C2)cc1 (centres undefined)	inactive

Test system: Mycobacterium tuberculosis
Test: Antitubercular activity against Mycobacterium tuberculosis H37Rv after 5 days by fluorescence assay
Assay type: functional
Conditions: 120 h

Structure (SMILES)	MIC [µM]
Brc1cccc(CNCC2CCCC(CNCc3cccc(Br)c3)C2)c1 (centres undefined)	12.7 (≈ 6.1 µg/mL)
Cc1ccc(CNCC2CCCC(CNCc3ccc(C)cc3)C2)cc1 (centres undefined)	> 20
Cc1cccc(CNCC2CCCC(CNCc3cccc(C)c3)C2)c1 (centres undefined)	> 20
CCCCCCc1ccc(CNCC2CCCC(CNCc3ccc(CCCCCC)cc3)C2)cc1 (centres undefined)	5.6 (≈ 2.75 µg/mL)
CCCCCc1ccccc1CNCC1CCCC(CNCc2ccccc2CCCCC)C1 (centres undefined)	8.7 (≈ 4.03 µg/mL)
Cc1ccc(C)c(CNCC2CCCC(CNCc3cc(C)ccc3C)C2)c1 (centres undefined)	> 20
CCCCCc1ccc(CNCC2CCCC(CNCc3ccc(CCCCC)cc3)C2)cc1 (centres undefined)	6.7 (≈ 3.1 µg/mL)
CCCc1ccc(CNCC2CCCC(CNCc3ccc(CCC)cc3)C2)cc1 (centres undefined)	4.2 (≈ 1.71 µg/mL)
c1cc(N2CCCCC2)ccc1CNCC1CCCC(CNCc2ccc(N3CCCCC3)cc2)C1 (centres undefined)	13.8 (≈ 6.74 µg/mL)
CC[C@@H](CO)NCCN[C@@H](CC)CO [ETHAMBUTOL]	2 (≈ 0.409 µg/mL)
Cc1ccc(CNCC2CCCC(CNCc3ccc(C)c(C)c3)C2)cc1C (centres undefined)	> 20
Cc1ccc(CNCC2CCCC(CNCc3ccc(C)cc3C)C2)c(C)c1 (centres undefined)	> 20
Clc1ccc(CNCC2CCCC(CNCc3ccc(Cl)cc3)C2)cc1 (centres undefined)	17.5 (≈ 6.85 µg/mL)
Brc1ccc(CNCC2CCCC(CNCc3ccc(Br)cc3)C2)cc1 (centres undefined)	12.2 (≈ 5.86 µg/mL)
Clc1cccc(CNCC2CCCC(CNCc3cccc(Cl)c3)C2)c1 (centres undefined)	> 20
CCCCCCCc1ccc(CNCC2CCCC(CNCc3ccc(CCCCCCC)cc3)C2)cc1 (centres undefined)	3.1 (≈ 1.61 µg/mL)
c1ccc(N2CCN(c3ccc(CNCC4CCCC(CNCc5ccc(N6CCN(c7ccccc7)CC6)cc5)C4)cc3)CC2)cc1 (centres undefined)	4.4 (≈ 2.83 µg/mL)
Brc1ccccc1CNCC1CCCC(CNCc2ccccc2Br)C1 (centres undefined)	> 20
Clc1ccc(CNCC2CCCC(CNCc3ccc(Cl)cc3Cl)C2)c(Cl)c1 (centres undefined)	20 (≈ 9.21 µg/mL)
CCCCCCCCc1ccc(CNCC2CCCC(CNCc3ccc(CCCCCCCC)cc3)C2)cc1 (centres undefined)	3.2 (≈ 1.75 µg/mL)
c1cc(N2CCCC2)ccc1CNCC1CCCC(CNCc2ccc(N3CCCC3)cc2)C1 (centres undefined)	9.5 (≈ 4.38 µg/mL)
CCCCCCc1ccccc1CNCC1CCCC(CNCc2ccccc2CCCCCC)C1 (centres undefined)	8.8 (≈ 4.32 µg/mL)
CCc1ccc(CNCC2CCCC(CNCc3ccc(CC)cc3)C2)cc1 (centres undefined)	15.7 (≈ 5.94 µg/mL)
CC(C)(C)c1ccc(CNCC2CCCC(CNCc3ccc(C(C)(C)C)cc3)C2)cc1.Cl.Cl (centres undefined)	1.1
CC(C)c1ccc(CNCC2CCCC(CNCc3ccc(C(C)C)cc3)C2)cc1 (centres undefined)	4.4 (≈ 1.79 µg/mL)
CCCCCCCc1ccccc1CNCC1CCCC(CNCc2ccccc2CCCCCCC)C1 (centres undefined)	20 (≈ 10.4 µg/mL)
FC(F)(F)c1ccc(CNCC2CCCC(CNCc3ccc(C(F)(F)F)cc3)C2)cc1 (centres undefined)	12.5 (≈ 5.73 µg/mL)
CCCCCCCCc1ccccc1CNCC1CCCC(CNCc2ccccc2CCCCCCCC)C1 (centres undefined)	16.1 (≈ 8.81 µg/mL)
Cc1cc(C)cc(CNCC2CCCC(CNCc3cc(C)cc(C)c3)C2)c1 (centres undefined)	17.5 (≈ 6.63 µg/mL)
CCCCc1ccc(CNCC2CCCC(CNCc3ccc(CCCC)cc3)C2)cc1.Cl.Cl (centres undefined)	2.4
